Here are results for 6 compounds from ChEMBL document CHEMBL1201862, “PubChem BioAssay data set” (2004).

Structures are written as SMILES. The source made the active and inactive calls.

In assay [1] the target is T1, Heat shock factor protein 1 (Mus musculus, UniProt P38532).
T1 sequence (P38532 whole entry): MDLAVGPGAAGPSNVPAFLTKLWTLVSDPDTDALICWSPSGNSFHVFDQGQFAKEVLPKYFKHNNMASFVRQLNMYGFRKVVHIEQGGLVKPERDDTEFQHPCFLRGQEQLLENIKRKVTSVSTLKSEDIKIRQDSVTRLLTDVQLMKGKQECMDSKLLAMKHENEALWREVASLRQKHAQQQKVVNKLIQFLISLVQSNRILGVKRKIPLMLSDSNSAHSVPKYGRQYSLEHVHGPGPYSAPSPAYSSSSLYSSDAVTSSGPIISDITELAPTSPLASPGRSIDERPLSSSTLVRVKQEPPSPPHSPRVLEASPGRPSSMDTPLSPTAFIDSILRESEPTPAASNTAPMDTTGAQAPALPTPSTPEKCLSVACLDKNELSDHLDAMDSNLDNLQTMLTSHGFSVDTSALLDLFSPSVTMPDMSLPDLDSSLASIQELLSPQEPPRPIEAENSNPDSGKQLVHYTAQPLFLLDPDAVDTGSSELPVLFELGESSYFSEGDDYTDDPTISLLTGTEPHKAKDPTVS
Put plainly: decrease of HSF1-responsive luciferase luminescence – cell-based, NIH3T3, dose retest, confirmation (AID 2382).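 Further: NIH3T3 fibroblasts with HSF1-driven luciferase reporter stressed by proteasome inhibitor MG132; luminescence from HSF1-driven luciferase expression after 8 hours of MG132 stress.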 The assay is classed as functional.

Assay [2] has as its target T2, Insulin-degrading enzyme (Homo sapiens, UniProt P14735).
T2 sequence (P14735 whole entry): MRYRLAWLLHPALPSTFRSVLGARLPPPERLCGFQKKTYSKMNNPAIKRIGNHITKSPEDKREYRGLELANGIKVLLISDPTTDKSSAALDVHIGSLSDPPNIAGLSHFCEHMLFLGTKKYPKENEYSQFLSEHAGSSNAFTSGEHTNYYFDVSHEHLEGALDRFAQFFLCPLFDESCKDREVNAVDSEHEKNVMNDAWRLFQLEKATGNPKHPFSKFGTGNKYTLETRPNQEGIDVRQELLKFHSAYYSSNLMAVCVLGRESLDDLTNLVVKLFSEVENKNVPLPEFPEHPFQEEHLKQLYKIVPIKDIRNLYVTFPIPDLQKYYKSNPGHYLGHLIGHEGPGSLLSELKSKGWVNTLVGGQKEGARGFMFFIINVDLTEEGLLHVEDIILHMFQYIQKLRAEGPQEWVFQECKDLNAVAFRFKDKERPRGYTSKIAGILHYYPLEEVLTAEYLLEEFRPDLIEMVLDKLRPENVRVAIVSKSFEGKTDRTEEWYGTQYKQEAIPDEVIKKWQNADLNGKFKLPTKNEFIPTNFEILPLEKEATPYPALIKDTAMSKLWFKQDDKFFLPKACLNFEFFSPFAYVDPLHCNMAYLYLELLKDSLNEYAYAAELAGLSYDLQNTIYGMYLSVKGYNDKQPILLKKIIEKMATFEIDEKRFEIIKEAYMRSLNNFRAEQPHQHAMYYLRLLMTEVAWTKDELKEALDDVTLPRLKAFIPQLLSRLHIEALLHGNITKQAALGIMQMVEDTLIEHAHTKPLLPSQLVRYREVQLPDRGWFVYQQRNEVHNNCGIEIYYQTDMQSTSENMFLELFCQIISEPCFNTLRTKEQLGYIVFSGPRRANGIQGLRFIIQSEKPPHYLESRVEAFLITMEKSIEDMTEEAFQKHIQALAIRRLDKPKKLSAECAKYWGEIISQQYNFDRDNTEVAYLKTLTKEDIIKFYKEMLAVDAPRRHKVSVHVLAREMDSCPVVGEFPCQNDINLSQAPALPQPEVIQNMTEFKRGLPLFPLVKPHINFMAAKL
Put plainly: recombinant IDE activation, cell-free – biochemical, fluorescence polarization, counter-screen for IDE activator project, dose response (AID 588681). For orientation: Polarisation of emitted light reports the rotation of a fluorescent probe.

Assay [3] addresses T2, Insulin-degrading enzyme. Kind of assay: cellular IDE activation of Abeta substrate cleavage – fluorescence polarization, HEK cells, dose response (AID 588439). The assay is classed as functional, cell-based.
Assay [4] concerns HEK293. Kind of assay: membrane integrity loss in HEK cells – cell-based, fluorescence, cytotoxicity control for IDE activator project, dose response (AID 588440).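 Further: cytotoxicity by LDH release measuring loss of membrane integrity.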 In kind it is functional. Particulars: Homo sapiens.
Assay [5] deals with HEK293. Put plainly: optical interference in Abeta FP readout, dose response, artefact control for IDE activator project, biochemical, fluorescence polarization (AID 588442). The assay is classed as functional, cell-based. Particulars: Homo sapiens.
The next assay has as its system CHO. Kind of assay: CHO cell viability loss, potency – luminescence, cytotoxicity control for TLR9-MyD88 binding inhibitor project, dose response (AID 588339).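 Further: CHO cells stably coexpressing TLR9 and MyD88 fusions from primary screen; compound exposure lasted 48 hours before viability readout.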 In kind it is functional, cell-based, hamster. Particulars: Cricetulus griseus.
The target in a further assay is Beta Lactamase (Pseudomonas aeruginosa, UniProt Q932Y6). Kind of assay: BLA reporter interference, concentration series – BLA reporter cells, FRET fluorescence, artefact control for TLR9-MyD88 binding inhibitor project, dose response (AID 588341).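 Further: cell based assay in CHO-K1 cells stably expressing beta-lactamase.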 In kind it is cell-based.
Sequence of Beta Lactamase (Q932Y6 whole entry): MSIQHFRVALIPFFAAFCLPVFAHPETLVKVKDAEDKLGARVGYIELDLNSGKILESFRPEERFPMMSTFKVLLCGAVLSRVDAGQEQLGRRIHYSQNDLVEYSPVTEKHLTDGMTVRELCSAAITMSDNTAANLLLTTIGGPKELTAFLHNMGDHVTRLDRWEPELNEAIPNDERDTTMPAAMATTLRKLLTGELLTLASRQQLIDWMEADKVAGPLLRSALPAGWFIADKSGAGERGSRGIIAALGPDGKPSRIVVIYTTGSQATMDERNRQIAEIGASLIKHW
For assay [6], the target named is UDP-galactopyranose mutase (Mycobacterium tuberculosis, UniProt P9WIQ1). Kind of assay: Inhibitors of Mycobacterium tuberculosis UDP-galactopyranose mutase (UGM) enzyme Measured in Biochemical System Using Plate Reader - 2105-02_Inhibitor_Dose_CherryPick_Activity. [Related pubchem assays (depositor defined):AID504439].
Sequence of UDP-galactopyranose mutase (P9WIQ1 whole entry): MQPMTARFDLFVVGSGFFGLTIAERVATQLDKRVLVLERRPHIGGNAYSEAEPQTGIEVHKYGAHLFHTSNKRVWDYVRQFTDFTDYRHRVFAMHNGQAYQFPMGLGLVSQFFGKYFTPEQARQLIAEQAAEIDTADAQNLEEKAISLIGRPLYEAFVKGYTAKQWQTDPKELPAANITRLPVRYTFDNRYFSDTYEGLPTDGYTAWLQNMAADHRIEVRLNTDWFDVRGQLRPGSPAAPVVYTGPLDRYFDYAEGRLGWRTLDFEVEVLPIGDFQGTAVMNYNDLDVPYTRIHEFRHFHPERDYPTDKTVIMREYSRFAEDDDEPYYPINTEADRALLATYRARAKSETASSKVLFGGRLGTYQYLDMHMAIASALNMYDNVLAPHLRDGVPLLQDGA
Assay [7] deals with T3, Corticotropin-releasing factor receptor 2/Corticotropin-releasing factor-binding protein (Homo sapiens, UniProt P24387+Q13324).
T3 sequence (Q13324 whole entry): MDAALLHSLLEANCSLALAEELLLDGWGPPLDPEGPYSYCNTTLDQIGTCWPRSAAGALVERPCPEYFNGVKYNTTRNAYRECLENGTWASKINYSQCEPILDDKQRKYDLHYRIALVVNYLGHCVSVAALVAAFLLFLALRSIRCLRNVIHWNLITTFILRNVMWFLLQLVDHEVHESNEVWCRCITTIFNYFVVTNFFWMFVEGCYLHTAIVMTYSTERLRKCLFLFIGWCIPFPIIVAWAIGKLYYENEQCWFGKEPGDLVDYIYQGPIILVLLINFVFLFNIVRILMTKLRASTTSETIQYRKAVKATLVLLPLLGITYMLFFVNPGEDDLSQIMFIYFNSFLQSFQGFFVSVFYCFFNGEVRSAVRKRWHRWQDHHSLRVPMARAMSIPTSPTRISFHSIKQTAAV
T3 sequence (P24387 whole entry): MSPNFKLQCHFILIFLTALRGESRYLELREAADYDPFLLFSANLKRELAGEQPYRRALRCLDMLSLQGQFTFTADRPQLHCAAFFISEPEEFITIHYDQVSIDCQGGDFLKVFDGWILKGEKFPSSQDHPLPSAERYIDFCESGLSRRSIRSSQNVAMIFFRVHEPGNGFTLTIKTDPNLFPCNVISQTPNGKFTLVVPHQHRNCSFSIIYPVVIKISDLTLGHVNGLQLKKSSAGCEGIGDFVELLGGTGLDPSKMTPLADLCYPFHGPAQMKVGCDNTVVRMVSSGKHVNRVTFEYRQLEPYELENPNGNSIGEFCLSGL
Kind of assay: activators of CRF receptor 2 with binding protein – uHTS hits, confirmation (AID 602473). The assay is classed as functional. Particulars: read-out: EC50_Mean.

Assay [8] concerns Streptococcus sp. 'group A'. Kind of assay: Streptococcus pyogenes SK(-)GAS viability under kanamycin – luminescence, BacTiterGlo, confirmation, counter-screen for streptokinase expression inhibitor project, dose response (AID 1900). The assay is classed as functional, organism-based.
The next assay relates to Streptococcus. Kind of assay: GAS UMAA2166 growth inhibition – luminescence, BacTiterGlo, counter-screen for streptokinase expression inhibitor project, dose response (AID 1915).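 Further: potency for reduction of bacterial viability or growth.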 The assay is classed as functional, organism-based.
Assay [9] can be described thus: THP-1 cell cytotoxicity, dose response, cytotoxicity control for non-replicating M. tuberculosis project (AID 489025). The assay is classed as functional.
A further assay can be described thus: cells. The assay is classed as functional.
A further assay deals with H9c2. Kind of assay: cells. The settings on record: Rattus norvegicus, H9c2, Myocardium. In kind it is functional, cell-based.
In assay [10] the test system is BJ. Kind of assay: BJ-TERT fibroblast viability loss – cell-based, RAS-independent, luminescence, dose response (AID 1933). In kind it is functional. Particulars: Homo sapiens.
Another assay addresses Beta-galactosidase (Escherichia coli, UniProt Q8VNN2). Put plainly: PubChem AID 485352. The assay is classed as functional.
Assay [11] deals with BJ. Put plainly: cells. In kind it is functional, cell-based. Particulars: Homo sapiens.
The target of assay [12] is T4, Type-1 angiotensin II receptor (Homo sapiens, UniProt P30556).
T4 sequence (P30556 whole entry): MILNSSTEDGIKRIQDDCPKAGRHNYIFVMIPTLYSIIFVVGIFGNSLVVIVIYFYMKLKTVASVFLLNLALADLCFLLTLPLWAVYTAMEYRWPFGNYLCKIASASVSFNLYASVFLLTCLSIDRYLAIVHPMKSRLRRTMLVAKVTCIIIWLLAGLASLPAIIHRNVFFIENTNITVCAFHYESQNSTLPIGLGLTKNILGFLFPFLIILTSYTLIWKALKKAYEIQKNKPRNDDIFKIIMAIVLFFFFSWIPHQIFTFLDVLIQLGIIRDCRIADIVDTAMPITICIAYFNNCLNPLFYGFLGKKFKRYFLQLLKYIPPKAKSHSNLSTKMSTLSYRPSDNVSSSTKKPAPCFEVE
Put plainly: antagonism of angiotensin II type 1 receptor – cell-based, uHTS hits, selectivity assay for APJ receptor antagonist project, dose response (AID 463214).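 Further: antagonist potency against angiotensin II stimulated AT1 response.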 The assay is classed as functional.

The target of assay [13] is Heat shock protein HSP 90-alpha (Homo sapiens, UniProt P07900). Put plainly: Luminescence-based dose response biochemical high throughput screening assay for inhibitors of the Heat Shock Protein 90 (HSP90). [Related pubchem assays: 1831 (Summary AID.), 1846 (Confirmation screen.), 1789 (Primary screen.)].
In assay [14] the test system is BJ. Kind of assay: BJ-TERT-LT-ST fibroblast viability loss – cell-based, RAS-independent, luminescence, dose response (AID 1935).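 Further: BJ fibroblasts immortalized with TERT plus LT and ST oncogenes.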 The assay is classed as functional. Particulars: Homo sapiens.
Assay [15] can be described thus: DRD fibroblast viability loss – cell-based, non-viral oncogenic, luminescence, dose response (AID 1934). In kind it is functional. Particulars: Homo sapiens.
For assay [16], the system named is BJ. Kind of assay: growth inhibition of engineered Ras-driven BJ cells – cell-based, alamar blue fluorescence, cherrypicked samples, dose response (AID 2631).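 Further: confirmatory dose-response assay in RAS-dependent BJ fibroblasts engineered with TERT, LT and ST, with cytotoxicity read by fluorescence.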 The assay is classed as functional. Particulars: Homo sapiens.

Sequence of Beta-galactosidase (Q8VNN2 whole entry): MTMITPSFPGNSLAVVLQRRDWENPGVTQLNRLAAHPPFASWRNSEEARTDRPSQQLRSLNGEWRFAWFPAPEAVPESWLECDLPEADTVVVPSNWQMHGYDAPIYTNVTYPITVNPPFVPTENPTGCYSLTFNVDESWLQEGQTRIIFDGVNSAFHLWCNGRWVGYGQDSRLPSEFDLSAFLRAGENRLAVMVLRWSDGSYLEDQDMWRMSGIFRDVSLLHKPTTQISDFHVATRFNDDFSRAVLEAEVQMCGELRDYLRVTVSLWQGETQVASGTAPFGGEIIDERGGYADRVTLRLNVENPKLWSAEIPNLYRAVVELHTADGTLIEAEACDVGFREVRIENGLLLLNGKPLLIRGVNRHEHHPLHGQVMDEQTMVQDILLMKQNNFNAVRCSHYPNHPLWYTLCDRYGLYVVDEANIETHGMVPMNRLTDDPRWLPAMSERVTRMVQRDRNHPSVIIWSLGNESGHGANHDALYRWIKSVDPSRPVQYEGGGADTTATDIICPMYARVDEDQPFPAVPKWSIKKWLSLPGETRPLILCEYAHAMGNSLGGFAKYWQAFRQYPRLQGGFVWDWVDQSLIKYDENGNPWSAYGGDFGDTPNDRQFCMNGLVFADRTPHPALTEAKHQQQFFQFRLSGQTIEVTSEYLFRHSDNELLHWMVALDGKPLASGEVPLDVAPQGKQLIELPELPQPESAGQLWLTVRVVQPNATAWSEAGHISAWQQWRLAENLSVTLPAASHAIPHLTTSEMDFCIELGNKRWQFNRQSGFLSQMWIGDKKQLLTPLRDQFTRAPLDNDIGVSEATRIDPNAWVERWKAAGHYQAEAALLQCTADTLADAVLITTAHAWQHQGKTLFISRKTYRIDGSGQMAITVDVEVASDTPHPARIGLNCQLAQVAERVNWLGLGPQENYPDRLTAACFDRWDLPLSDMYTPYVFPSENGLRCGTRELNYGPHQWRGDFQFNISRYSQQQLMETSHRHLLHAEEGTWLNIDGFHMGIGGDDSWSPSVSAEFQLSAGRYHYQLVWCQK

Take `COc1ccc(/C=C(\C#N)C(=O)Nc2cc(C)c(Cl)cc2OC)cc1O`: the EC50 in assay [1] is > 195 µM (not active); at Insulin-degrading enzyme [2], > 54.7 µM (inactive); at Insulin-degrading enzyme [3] it was > 54.7 µM (inactive); in the assay on HEK293 [5] it was > 55.9 µM (inactive). Further, the IC50 – broadly, the concentration needed to halve the response being measured – in the assay on HEK293 [4] was 12.6 µM (inactive).
For `Nc1ccc2c(C(F)(F)F)cc(=O)oc2c1`, the IC50 with CHO is > 49.7 µM (inactive); at Beta Lactamase, 4.77 µM (active).
As to `COCO/C=C(\NC(C)=O)c1ccccc1`, the values for the EC50 at Insulin-degrading enzyme [2], on Insulin-degrading enzyme [3] and in the assay on HEK293 [5] were > 54.7 µM (inactive), > 54.7 µM (inactive) and > 56 µM (inactive), respectively. Also, the IC50 in the assay on HEK293 [4] is > 89.3 µM (inactive).
Regarding `O=C(NC1CCCCC1)c1cccc2c1C(=O)c1ccc(N3CCC(Cc4ccccc4)CC3)cc1S2(=O)=O`, the IC50 in the assay with CHO was > 49.7 µM (inactive); on Beta Lactamase, 3.87 µM (active). Moreover, the AC50 (commonly the concentration at which the activity in the assay is half-maximal) in assay [6] was 72.3 µM (active). Moreover, in assay [7], the EC50 is 6.47 µM (active).
In the case of `O=c1c(O)c(-c2cccs2)oc2ccc(Cl)cc12`, the EC50 in [8] was 2.11 µM (active); in the assay with Streptococcus, 7.38 µM (active); at Insulin-degrading enzyme [2], > 54.7 µM (inactive); on Insulin-degrading enzyme [3] it was > 54.7 µM (inactive); with HEK293 [5], > 54.7 µM (inactive). Besides, the CC50 (as a rule, the concentration that lowers cell viability or growth by half) in assay [9] was > 40 µM (active). For the same compound, the IC50 in “cells” was 13.8 µM (active); with H9c2 it was > 79 µM (inactive); in the assay with HEK293 [4], > 89.2 µM (inactive).
For the compound `O=[N+]([O-])c1ccc(N=Nc2ncc[nH]2)cc1`, the EC50 in the assay on BJ [10] is 5.4 µM (inconclusive); at Beta-galactosidase, > 40 µM (inactive); in assay [1] it was 8.49 µM (active); in the assay on BJ [11], 2.43 µM (inconclusive); in the assay with BJ [14] it was > 150 µM (inconclusive); in assay [15], 11.5 µM (inconclusive). In addition, the EC50 in the assay with BJ [16] was 14.8 µM (active). The IC50 was 23.5 µM (not active) in [12] and 10.2 µM (not active) in assay [13].
